Series [1] in a line: Metabolic stability in human liver microsomes after 1 hr. In kind it is ADME, Microsome. To be noted: read-out: Stability. A general note: Microsomes from liver hold many membrane-bound enzymes, among them those of drug oxidation.
Series [2] is described as follows: […] bioavailability in ip dosed rat. In kind it is ADME, organism-based. To be noted: in vivo, intraperitoneal.
Series [3] in a line: […] bioavailability in sc dosed rat. In kind it is ADME, organism-based. To be noted: in vivo, subcutaneous.
The nature of series [4]: Aqueous solubility at pH 2. In kind it is physicochemical.
Series [5] can be described thus: Aqueous solubility at pH 7. In kind it is physicochemical.

Each structure is given as a SMILES string.

The term bioavailability denotes dose-corrected exposure relative to a reference, in per cent. Lower therefore signals little systemic uptake. By solubility is commonly meant the concentration that dissolves in the medium under given conditions. Read a high solubility as a readily soluble substance.

For the compound `C[N+](C)(Cc1ccc(NC(=O)c2ccc(Cl)c(Cl)c2)cc1)C1CCOCC1` [JNJ-17166864 CATION], the remaining at 1 h in series [1] came out at 100%. For the same compound, the values for the bioavailability in series [2] and in series [3] were 74% and 100%, respectively. Moreover, the solubility in series [4] and in series [5] was > 7000 µg/mL in each case.

(Values after ChEMBL document CHEMBL1140669, “Potent and selective CC-chemokine receptor-2 (CCR2) antagonists as a potential treatment for asthma” (Bioorg Med Chem Lett, 2007).)
